Laboratory results: patent publication US12458604B2, “Methods of lipid nanoparticle manufacture and compositions derived therefrom” (George Mason Research Foundation, Inc., priority 2020, dated 2025)

Tests used:
[1] = pKa of the ionizable lipid measured in the LNP (TNS pKa); format: physicochemical; conditions: for pKa: lipid nanoparticle (LNP) containing the ionizable lipid; for DpKa: ACD pKa versus TNS pKa
Text: In some embodiments, the “LNP lipids” are MC3, DLin, and/or KC2 as shown below. The table highlights the pKa of the ionizable lipid measured in the LNP (TNS pKa) versus the pKa in aqueous medium predicated by a commercial software ACDLabs Percepta.:
In one embodiment, the amount of nucleic acid is represented by the LNP mole ratio of the amine on the ionizable lipid to the phosphate groups on the nucleic acid backbone and is typically about 3 to about 6. In one embodiment, the pKa of the LNP is in the about 6 to about 7 range corresponding to the pH in the early endosome. A link between the pKa of ionizable lipid in the LNP and gene silencing efficiency has shown that an LNP pKa in the range of about 6 to about 7 produced more silencing for the ionizable lipid DLinDMA and was associated with promoting lipid structures that could disrupt the membrane of the endosome. The pKa of the LNP may be measured using the pH-dependence of fluorescence enhancement of the anionic dye TNS.

HEK293 cells = experiment: Firefly Luciferase Assay for mRNA Delivery Efficiency; format: cell-based; conditions: for potency when sodium acetate concentration was reduced from 60 mM to 25 mM / potency when mixed at the higher concentration 1.5 mg/ml vs the lower concentration 0.25 mg/ml: Example 12; for potency when mixed at the higher concentration 1.5 mg/ml vs the lower concentration 0.25 mg/ml / LNP potency at the higher versus lower mixing concentration: same dose; for LNP potency at the higher versus lower mixing concentration: NP 4, sodium acetate pH 4
Protocol: Summary: LNPs were formulated using total lipid concentration of 6 to 27 mM comprised of KC2/DSPC/Cholesterol/PEG-DMG (50:10:38.5:1.5 mol %). Each one of the lipids were solubilized in ethanol until a clear solution was observed. The four lipids were combined to get 50 mM total lipid concentration (25/5/19.25/0.75 mM respectively), then serial dilutions were done to reach 6 to 27 mM. […] Purified mRNA was ethanol precipitated, washed and resuspended in nuclease-free water to reach concentrations of 1 mg/mL. […] 16 μl Lipid Mix and 341 mRNA solution were mixed on Setting 3 and ejected into 48 μl 1×DPBS pH 7.4. The formed LNPS were then diluted into an additional 96 μl 1×DPBS pH 7.4. LNPs were then dialyzed against 1×DPBS pH 7.4 for 4×1 hr. LNPs were then diluted so that 32 ul contained 200 ng and 12K HEK293 cells were transfected with the same 200 ng dose but manufactured at different concentrations in the microfluidic mixer.
A. Firefly Luciferase Assay for mRNA Delivery Efficiency. After 24 hours of transfection, transfected cells were conditioned to room temperature for 30 minutes prior the Firefly Luciferase Assay. Quantilum Recombinant Luciferase standard curve was prepared in 10% EMEM in 5-fold serial dilutions. 50 ul of each standard point from the range of 3.9×10^−5 mg/ml to 4.88×10^−3 mg/ml were included in the microplate as a positive enzyme activity control (data not shown) to maintain a linearity of 10^7 RLU/mg/ml. The ONE-Glo substrate, previously conditioned to room temperature for at least 4 hours, was added to each untransfected, transfected and Quantilum wells in a ratio 1:1. Assay plates were incubated for 3 minutes in darkness and immediately introduced into the Cytation 5 Cell Imaging Multi-Mode Reader (Biotek) to read luminescence.
Each one of the lipids were solubilized in ethanol until a clear solution was observed. […] To prepare 75 mM total lipid concentration (37.5/7.5/28.88/1.13 mM respectively), KC2/DL-ADDE-C2C2-PipZ/BODD-ADDE-C2C4-PipZ and Cholesterol were mixed first, same for DSPC and PEG to solubilize both solutions in ethanol before combining them to reach 75 mM. […] Purified mRNA was ethanol precipitated, washed and resuspended in nuclease-free water to reach concentrations of 4.4 mg/ml. […] 16 μl Lipid Mix and 341 mRNA solution were mixed on Setting 3 and ejected into 48 μl 1×DPBS pH 7.4. The formed LNPS were then diluted into an additional 96 μl 1×DPBS pH 7.4. LNPs were then dialyzed against 1×DPBS pH 7.4 for 4×1 hr. LNPs were then diluted so that 32 ul contained 25-200 ng and 12K HEK293 cells were transfected with the same dose but manufactured at different concentrations in the microfluidic mixer.

mice = experiment: In vivo and ex vivo Firefly Luciferase expression (IVIS); conditions: for higher potency in vivo of buffer-free assembly compared to using a buffer: by IVIS, high lipid and mRNA mixing concentrations, 0.25 protons per ionizable lipid, NP 4
Protocol: C: In vivo Firefly Luciferase expression in IM administration. 5 ug of encapsulated mRNA were injected in mice in intramuscular (I.M.), intradermal (ID.) and intravenous (I.V.) injections. ROIs were calculated using the IVIS system. Imaging were performed at 4 and 20 hours.
(§1) C: In vivo Firefly Luciferase expression in IM administration. 0.5-5 ug of total mRNA was injected in mice in intramuscular (I.M.) injections. Luciferin was administrated intraperitoneally at 4 hours post-injection and luciferase expression monitored by live animal imaging at 4 and 24 hours. ROIs were calculated using the IVIS system.
as §1, with “D:” for “C:”, “In vivo and ex” for “In”, “administration for LNPs mixed at 1.5 mg/ml. 1” for “administration. 0.5-5”, “4” for “4 and 24”, “system. For Ex Vivo, organs were extracted and imaged immediately after In Vivo imaging.” for “system.”
E: In vivo and ex vivo Firefly Luciferase expression in IV administration for LNPs mixed at 1.5 mg/ml. 1 ug of total mRNA was injected in mice in […] (I.V.) injections. Luciferin was administrated intraperitoneally at 4 hours post-injection and luciferase expression monitored by live animal imaging at 4 hours. ROIs were calculated using the IVIS system. For Ex Vivo, organs were extracted and imaged immediately after In Vivo imaging.

SARS-CoV-2 = experiment: In vivo protection against viral challenge; conditions: SARS-CoV-2 immunogen mRNA, mice, I.M.
Protocol: Summary: LNPs were formulated using total lipid concentration of 10-75 mM comprised of several ionizable/DSPC/Cholesterol/PEG-DMG (47-50:10-13:37-38.5:1.5-2 mol %). Each one of the lipids were solubilized in ethanol until a clear solution was observed. The four lipids were combined to get 75 mM total lipid concentration then serial dilutions were done to reach 10 mM. Codon optimized 2019-nCoV Wuhan S-2P (Covid) sequence was cloned into an mRNA plasmid (optimized 3′ and 5′ UTR and containing a 101 polyA tail (SEQ ID NO: 4)) for co-transcriptional capping, in vitro transcribed using N1 methyl pseudouridine modified nucleoside and cellulose purified to remove dsRNA. Purified mRNA was ethanol precipitated, washed and resuspended in nuclease-free water to reach concentrations of 5.5 mg/ml. […] 16 μl Lipid Mix and 32 μl mRNA solution were mixed on Setting 3 and ejected into 48 μl 1×DPBS pH 7.4. The formed LNPS were then diluted into an additional 96 μl 1×DPBS pH 7.4. LNPs were then dialyzed against 1×DPBS pH 7.4 for 4×1 hr. LNPs were then diluted so that 32 ul contained 25-200 ng and 12K HEK293 cells were transfected with the same dose but manufactured at different concentrations in the microfluidic mixer.
A: In vivo protection against viral challenge—Survival proportion, Weight and Temperature in Challenge model. […]

[2] = pKa of the ionizable lipid measured in the LNP; published ionizable lipids; cited from earlier work

| Compound | pKa [1] | potency when sodium acetate concentration was reduced from 60 mM to 25 mM (HEK293 cells) | potency when mixed at the higher concentration 1.5 mg/ml vs the lower concentration 0.25 mg/ml (HEK293 cells) | potency on increasing pH from 4 to 5 (HEK293 cells; Example 13, 1.5 mg/ml mRNA in 25 mM NaOAc) | LNP potency at the higher versus lower mixing concentration (HEK293 cells; in vitro) | higher potency in vivo of buffer-free assembly compared to using a buffer (mice; IM administration) | higher potency in vivo of buffer-free assembly compared to using a buffer (mice; IV administration) | Protective against lethal challenge (SARS-CoV-2; 0.25 ug) | DpKa [1] | LNP potency increase when reducing sodium acetate from 50 mM to 25 mM (HEK293 cells; 1.5 mg/ml of mRNA, pH 4, NP 4) | delivery efficiency at the same dose with increased mixing concentration (HEK293 cells; in vitro, KC2/DSPC/Cholesterol/PEG-DMG LNPs, NP 4) | LNP potency increase when reducing sodium acetate concentration from 25 mM to 10 mM (HEK293 cells; mRNA concentration of 0.25 mg/ml, pH 4, NP 4) | delivery efficiency at the same dose with increased mixing concentration (mice; in vivo, 5 ug of encapsulated mRNA, lipids 5 to 100 mM, mRNA 0.1 to 2 mg/ml) | TNS pKa [2] | Protective against lethal challenge (SARS-CoV-2; 0.5 ug) |
| --- | --- | --- | --- | --- | --- | --- | --- | --- | --- | --- | --- | --- | --- | --- | --- |
| CCCCC/C=C\C/C=C\CCCCCCCCOC(=O)CCN(CCC(=O)OCCCCCCCC/C=C\C/C=C\CCCCC)CCN1CCN(C)CC1 (racemic) [DL-C2/C2-PipZ] | ~7.5 | did not show either effect | did not |  |  |  |  |  |  |  |  |  |  |  |  |
| CCCCCCCCC(CCCCCCCC)COC(=O)CCN(CCCCN1CCN(C)CC1)CCC(=O)OCC(CCCCCCCC)CCCCCCCC [BOD-C2/C4-PipZ] | ~6.5 | increased potency | large increase in potency | increases potency | LNP potency increases | 3 × | 3 × | 100% |  |  |  |  |  |  |  |
| CCCCC/C=C\C/C=C\CCCCCCCCOCC(CN(C)C)OCCCCCCCC/C=C\C/C=C\CCCCC (centres unmarked) [DLin] |  |  |  |  |  |  |  |  | 1.8 |  |  |  |  |  |  |
| CCCCC/C=C\C/C=C\CCCCCCCCC1(CCCCCCCC/C=C\C/C=C\CCCCC)OCC(CCN(C)C)O1 (centres unmarked) [KC2] | ~6.5 | increased potency | large increase in potency |  | LNP potency increases |  |  |  | 2.6 | 44% | increased delivery efficiency at the same dose only at the lowest NaOAc concentration of 50 mM | 2.2 × | increased delivery efficiency | 6.7 |  |
| CCCCC/C=C\C/C=C\CCCCCCCCC(CCCCCCCC/C=C\C/C=C\CCCCC)OC(=O)CCCN(C)C [MC3] | ~6.5 | increased potency | large increase in potency |  | LNP potency increases |  |  |  | 3 |  |  |  |  | 6.4 | 100% |
